Test results published in ChEMBL document CHEMBL4483862, “Open-source discovery of chemical leads for next-generation chemoprotective antimalarials” (2018).

Test system: Plasmodium berghei
Assay: Luciferase/luciferin-expressing antifolate-resistant parasites were used to infect a culture of HepG2 cells that were pre-incubated with compounds. Infected hepatocytes emit light due to the luciferase reaction. Assay results are presented as the percent inhibition of light emission compared to control. […]
Assay type: functional
Settings: sporozoite; for IC90: read-out: LUCIFERASE INFECTION ASSAY - IC90

SMILES | IC90 [nM] | also measured
Cc1cc(NNC(=O)Nc2cccc(Cl)c2)nc2c1c(C)nn2C | > 9570 | IC50 (HEPG2TOX_HILL_SLOPE 1.19, HEPG2TOX_R_SQUARED 0.796, PBLUC_HILL_SLOPE 1.82, PBLUC_R_SQUARED 0.0269, read-out: LUCIFERASE INFECTION ASSAY - IC50): 5860 nM
CN(CCO)c1ccc(C(=O)c2ccc(N(C)CCO)cc2)cc1 | 9220 | IC50 (HEPG2TOX_HILL_SLOPE 1.17, HEPG2TOX_R_SQUARED 0.868, PBLUC_HILL_SLOPE 1.55, PBLUC_R_SQUARED 0.285, read-out: LUCIFERASE INFECTION ASSAY - IC50): 2240 nM
c1cncc(-c2ccc3ncc(-c4cccnc4)n3n2)c1 | 2920 | IC50 (HEPG2TOX_HILL_SLOPE 1.17, HEPG2TOX_R_SQUARED 0.949, PBLUC_HILL_SLOPE 1.66, PBLUC_R_SQUARED 0.633, read-out: LUCIFERASE INFECTION ASSAY - IC50): 778 nM
CNC(=O)c1cccc(-c2ccc3ncc(-c4ccc(NC(C)=O)cc4)n3n2)c1 | 2630 | IC50 (HEPG2TOX_HILL_SLOPE 1.21, HEPG2TOX_R_SQUARED 0.751, PBLUC_HILL_SLOPE 4.52, PBLUC_R_SQUARED 0.725, read-out: LUCIFERASE INFECTION ASSAY - IC50): 1620 nM
CN(C)c1ccc(CNc2ncnc3ccccc23)cc1 | > 10000 | IC50 (HEPG2TOX_HILL_SLOPE 1.21, HEPG2TOX_R_SQUARED 0.974, PBLUC_HILL_SLOPE 1.4, PBLUC_R_SQUARED 0.594, read-out: LUCIFERASE INFECTION ASSAY - IC50): 4350 nM
CC(C)NC(=O)c1c(NC(=O)c2cccc(Cl)c2)nc2ccccn12 | 2220 | IC50 (HEPG2TOX_HILL_SLOPE 1.2, HEPG2TOX_R_SQUARED 0.976, PBLUC_HILL_SLOPE 4.43, PBLUC_R_SQUARED 0.437, read-out: LUCIFERASE INFECTION ASSAY - IC50): 1350 nM
COC(=O)c1c(C)[nH]c(C(=O)C(C)OC(=O)c2ccccc2NS(=O)(=O)c2ccc(Br)s2)c1C (configuration not stated) | > 10000 | IC50 (HEPG2TOX_HILL_SLOPE 1.22, HEPG2TOX_R_SQUARED 0.375, PBLUC_HILL_SLOPE 2.55, PBLUC_R_SQUARED 0.409, read-out: LUCIFERASE INFECTION ASSAY - IC50): 7980 nM
COc1ccc(/C=C/C#N)c(Cl)c1OC | > 14800 | IC50 (HEPG2TOX_HILL_SLOPE 1.17, HEPG2TOX_R_SQUARED 0.985, PBLUC_HILL_SLOPE 2.95, PBLUC_R_SQUARED 0.12, read-out: LUCIFERASE INFECTION ASSAY - IC50): 11300 nM
CC(Nc1ncnc2scc(-c3ccccc3)c12)c1ccc(S(C)(=O)=O)cc1 (configuration not stated) | 7110 | IC50 (HEPG2TOX_HILL_SLOPE 1.17, HEPG2TOX_R_SQUARED 0.977, PBLUC_HILL_SLOPE 2.44, PBLUC_R_SQUARED 0.865, read-out: LUCIFERASE INFECTION ASSAY - IC50): 2890 nM
CCOc1ccc(CN(C)c2ncnc3sc(C)c(C)c23)cc1OC | 3650 | IC50 (HEPG2TOX_HILL_SLOPE 1.19, HEPG2TOX_R_SQUARED 0.971, PBLUC_HILL_SLOPE 15.4, PBLUC_R_SQUARED 0.0404, read-out: LUCIFERASE INFECTION ASSAY - IC50): 3160 nM
CCOC(=O)C1=C(CSc2nc3ccccc3c(=O)n2-c2ccc(OC(F)F)cc2)NC(=O)NC1C (configuration not stated) | > 10000 | IC50 (HEPG2TOX_HILL_SLOPE 1.17, HEPG2TOX_R_SQUARED 0.429, PBLUC_HILL_SLOPE 8.23, PBLUC_R_SQUARED 0.327, read-out: LUCIFERASE INFECTION ASSAY - IC50): 8350 nM
Cn1ccc2cc(-c3cn4c(-c5cccc(O)c5)cnc4cn3)ccc21 | 3110 | IC50 (HEPG2TOX_HILL_SLOPE 1.21, HEPG2TOX_R_SQUARED 0.948, PBLUC_HILL_SLOPE 1.63, PBLUC_R_SQUARED 0.761, read-out: LUCIFERASE INFECTION ASSAY - IC50): 805 nM
CN(C1CCCCC1)S(=O)(=O)c1cccc(C(=O)Nc2ccc(S(=O)(=O)NCc3ccco3)cc2)c1 | 1720 | IC50 (HEPG2TOX_HILL_SLOPE 1.16, HEPG2TOX_R_SQUARED 0.836, PBLUC_HILL_SLOPE 2.1, PBLUC_R_SQUARED 0.409, read-out: LUCIFERASE INFECTION ASSAY - IC50): 606 nM
Brc1ccc(-c2csc3ncnc(NCc4ccc(-n5ccnc5)nc4)c23)cc1 | > 10000 | IC50 (HEPG2TOX_HILL_SLOPE 1.16, HEPG2TOX_R_SQUARED 0.868, read-out: LUCIFERASE INFECTION ASSAY - IC50): > 10000 nM
CCCC1(CCC)NC(=O)N(CC(=O)/N=c2\sc3ccccc3n2C)C1=O | > 10000 | IC50 (HEPG2TOX_HILL_SLOPE 1.17, HEPG2TOX_R_SQUARED 0.854, PBLUC_HILL_SLOPE 1.78, PBLUC_R_SQUARED 0.281, read-out: LUCIFERASE INFECTION ASSAY - IC50): 4540 nM
CSCC[C@H](NC(=O)CCN(c1cc(C)cc(C)c1)S(=O)(=O)c1ccc(Cl)cc1)c1nc2ccccc2[nH]1 | > 10000 | IC50 (HEPG2TOX_HILL_SLOPE 1.18, HEPG2TOX_R_SQUARED 0.616, PBLUC_HILL_SLOPE 8.87, PBLUC_R_SQUARED 0.619, read-out: LUCIFERASE INFECTION ASSAY - IC50): 8360 nM

SMILES | IC90 [nM] | also measured
Cc1cc(C)n(-c2ccc(NC(=O)c3ccc(CN4CCCCC4)cc3)cn2)n1 | > 10000 | IC50 (HEPG2TOX_HILL_SLOPE 1.19, HEPG2TOX_R_SQUARED 0.854, PBLUC_HILL_SLOPE 17.4, PBLUC_R_SQUARED 0.154, read-out: LUCIFERASE INFECTION ASSAY - IC50): 9790 nM
COc1ccc(-c2cnc3cnc(-c4ccc5c(ccn5C)c4)cn23)cn1 | 1220 | IC50 (HEPG2TOX_HILL_SLOPE 1.17, HEPG2TOX_R_SQUARED 0.992, PBLUC_HILL_SLOPE 12.5, PBLUC_R_SQUARED 0.775, read-out: LUCIFERASE INFECTION ASSAY - IC50): 1020 nM
CNc1snc(C)c1C(=O)NCc1ccc(COCC(F)(F)F)cc1 | 1720 | IC50 (HEPG2TOX_HILL_SLOPE 1.16, HEPG2TOX_R_SQUARED 0.865, PBLUC_HILL_SLOPE 3.24, 27.9, PBLUC_R_SQUARED 0.892, 0.904, read-out: LUCIFERASE INFECTION ASSAY - IC50): 1120 nM
COc1ccc(/C=C/C(=O)c2cc(Cl)c(OC)cc2OC)cc1O | 1260 | IC50 (HEPG2TOX_HILL_SLOPE 1.17, HEPG2TOX_R_SQUARED 0.559, PBLUC_HILL_SLOPE 18.3, PBLUC_R_SQUARED 0.538, read-out: LUCIFERASE INFECTION ASSAY - IC50): 1120 nM
Cn1ccc2cc(-c3cnc4cnc(-c5ccccc5)cn34)ccc21 | 242 | IC50 (HEPG2TOX_HILL_SLOPE 1.21, HEPG2TOX_R_SQUARED 0.923, PBLUC_HILL_SLOPE 1.33, PBLUC_R_SQUARED 0.803, read-out: LUCIFERASE INFECTION ASSAY - IC50): 46.5 nM
CC(=O)c1c(C)[nH]c(C(=O)OCC(=O)NC2CCCc3ccccc32)c1C (configuration not stated) | > 10000 | IC50 (HEPG2TOX_HILL_SLOPE 1.17, HEPG2TOX_R_SQUARED 0.444, read-out: LUCIFERASE INFECTION ASSAY - IC50): > 10000 nM
CSc1sc(C(=O)N/N=C/c2ccc(Cl)cc2)cc1S(=O)(=O)C(C)C | 5750 | IC50 (HEPG2TOX_HILL_SLOPE 1.17, HEPG2TOX_R_SQUARED 0.979, PBLUC_HILL_SLOPE 3, PBLUC_R_SQUARED 0.696, read-out: LUCIFERASE INFECTION ASSAY - IC50): 2770 nM
Cc1nc2c3ccccc3nc(SCC(=O)Nc3ccccc3)n2n1 | 1430 | IC50 (HEPG2TOX_HILL_SLOPE 1.21, HEPG2TOX_R_SQUARED 0.956, PBLUC_HILL_SLOPE 1.03, PBLUC_R_SQUARED 0.933, read-out: LUCIFERASE INFECTION ASSAY - IC50): 169 nM
Cc1cc(C(=O)Cn2cnc3ccccc3c2=O)c(C)n1-c1ccccc1 | > 10000 | IC50 (HEPG2TOX_HILL_SLOPE 1.21, HEPG2TOX_R_SQUARED 0.806, PBLUC_HILL_SLOPE 1.3, PBLUC_R_SQUARED 0.604, read-out: LUCIFERASE INFECTION ASSAY - IC50): 2960 nM
O=C1C(=C2NC=C(c3ccc(Cl)cc3)O2)Sc2ncccc21 | 1690 | IC50 (HEPG2TOX_HILL_SLOPE 1.16, HEPG2TOX_R_SQUARED 0.581, PBLUC_HILL_SLOPE 117, PBLUC_R_SQUARED 0.316, read-out: LUCIFERASE INFECTION ASSAY - IC50): 1660 nM
Cn1cc(-c2cn3c(-c4ccc5c(ccn5C)c4)cnc3cn2)cn1 | 1470 | IC50 (HEPG2TOX_HILL_SLOPE 1.22, HEPG2TOX_R_SQUARED 0.939, PBLUC_HILL_SLOPE 1.34, PBLUC_R_SQUARED 0.885, read-out: LUCIFERASE INFECTION ASSAY - IC50): 287 nM
CN1/C(=C\Sc2ccccc2[N+](=O)[O-])C(C)(C)c2ccccc21 | > 10000 | IC50 (HEPG2TOX_HILL_SLOPE 1.18, HEPG2TOX_R_SQUARED 0.48, PBLUC_HILL_SLOPE 2.15, PBLUC_R_SQUARED 0.378, read-out: LUCIFERASE INFECTION ASSAY - IC50): 8070 nM
O=C(c1ccco1)N1CCN(c2ncnc3c2[nH]c2ccc(F)cc23)CC1 | > 9030 | IC50 (HEPG2TOX_HILL_SLOPE 1.18, HEPG2TOX_R_SQUARED 0.668, PBLUC_HILL_SLOPE 1.45, PBLUC_R_SQUARED 0.295, read-out: LUCIFERASE INFECTION ASSAY - IC50): > 9030 nM
CN(C)C(=O)C1CCCN1c1ccc(C(=O)c2ccccc2)cc1[N+](=O)[O-] (configuration not stated) | > 10000 | IC50 (HEPG2TOX_HILL_SLOPE 1.22, HEPG2TOX_R_SQUARED 0.897, PBLUC_HILL_SLOPE 2.78, PBLUC_R_SQUARED 0.507, read-out: LUCIFERASE INFECTION ASSAY - IC50): 6200 nM
Cc1ccc(O)c(C(=O)c2c[nH]c(-c3nc4ccccc4[nH]3)c2)c1 | > 10000 | IC50 (HEPG2TOX_HILL_SLOPE 1.19, HEPG2TOX_R_SQUARED 0.817, PBLUC_HILL_SLOPE 1.99, PBLUC_R_SQUARED 0.294, read-out: LUCIFERASE INFECTION ASSAY - IC50): 3740 nM
